Measured values reported in PubChem BioAssay (NCI).
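Tested at 5 concentrations; 48 h exposure; 96-well plates; endpoints linearly interpolated, else capped at highest concentration. The concentration for 50% growth inhibition is given as GI50. The concentration for full growth arrest is given as TGI.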

Columns and labels:
Experiment in all cases: growth of human tumour cells (NCI), 48 h
NCI/ADR-RES ovarian = tested on: NCI/ADR-RES ovarian
NCI-H460 lung = tested on: NCI-H460 lung
HOP-62 NSCLC = tested on: HOP-62 NSCLC
OVCAR-3 ovarian = tested on: OVCAR-3 ovarian
SNB-75 CNS = tested on: SNB-75 CNS
SR leukemia = tested on: SR leukemia
HL-60(TB) leukemia = tested on: HL-60(TB) leukemia
UACC-62 melanoma = tested on: UACC-62 melanoma
LOX IMVI melanoma = tested on: LOX IMVI melanoma
K-562 leukemia = tested on: K-562 leukemia
MALME-3M melanoma = tested on: MALME-3M melanoma
HCT-116 colon = tested on: HCT-116 colon
HS 578T breast = tested on: HS 578T breast
SF-539 CNS = tested on: SF-539 CNS
SNB-19 CNS = tested on: SNB-19 CNS
T-47D breast = tested on: T-47D breast
SK-MEL-2 melanoma = tested on: SK-MEL-2 melanoma
A549 NSCLC = tested on: A549 NSCLC
MCF7 breast = tested on: MCF7 breast
HCC-2998 colon = tested on: HCC-2998 colon
MDA-MB-435 = tested on: MDA-MB-435
MDA-MB-231 breast = tested on: MDA-MB-231 breast
HCT-15 colon = tested on: HCT-15 colon
HT29 colon = tested on: HT29 colon
SW-620 colon = tested on: SW-620 colon
NCI-H23 lung = tested on: NCI-H23 lung
UO-31 renal = tested on: UO-31 renal
RPMI-8226 leukemia = tested on: RPMI-8226 leukemia
SF-268 CNS = tested on: SF-268 CNS
CAKI-1 renal = tested on: CAKI-1 renal
U251 CNS = tested on: U251 CNS
CCRF-CEM leukemia = tested on: CCRF-CEM leukemia
SK-OV-3 ovarian = tested on: SK-OV-3 ovarian
BT-549 breast = tested on: BT-549 breast
PC-3 prostate = tested on: PC-3 prostate
A498 renal = tested on: A498 renal
SK-MEL-28 melanoma = tested on: SK-MEL-28 melanoma
NCI-H522 lung = tested on: NCI-H522 lung
OVCAR-8 ovarian = tested on: OVCAR-8 ovarian
SK-MEL-5 melanoma = tested on: SK-MEL-5 melanoma
M14 melanoma = tested on: M14 melanoma
KM12 colon = tested on: KM12 colon
TK-10 renal = tested on: TK-10 renal
OVCAR-5 ovarian = tested on: OVCAR-5 ovarian
RXF 393 renal = tested on: RXF 393 renal
UACC-257 melanoma = tested on: UACC-257 melanoma
DU-145 prostate = tested on: DU-145 prostate
OVCAR-4 ovarian = tested on: OVCAR-4 ovarian
HOP-92 NSCLC = tested on: HOP-92 NSCLC
SN12C renal = tested on: SN12C renal
ACHN renal = tested on: ACHN renal
786-0 renal = tested on: 786-0 renal
COLO 205 colon = tested on: COLO 205 colon
SF-295 CNS = tested on: SF-295 CNS
NCI-H226 lung = tested on: NCI-H226 lung
IGROV1 ovarian = tested on: IGROV1 ovarian
MOLT-4 leukemia = tested on: MOLT-4 leukemia

CC(C)Nc1ncc2cc(Oc3ccc(F)cc3F)c(=O)n(C)c2n1
GI50 (NCI/ADR-RES ovarian): > 25 µM | TGI (NCI/ADR-RES ovarian): > 25 µM | GI50 (NCI-H460 lung): > 25 µM | TGI (NCI-H460 lung): > 25 µM | GI50 (HOP-62 NSCLC): > 25 µM | TGI (HOP-62 NSCLC): > 25 µM | GI50 (OVCAR-3 ovarian): > 25 µM | TGI (OVCAR-3 ovarian): > 25 µM | GI50 (SNB-75 CNS): > 25 µM | TGI (SNB-75 CNS): > 25 µM | GI50 (SR leukemia): > 25 µM | TGI (SR leukemia): > 25 µM | GI50 (HL-60(TB) leukemia): > 25 µM | TGI (HL-60(TB) leukemia): > 25 µM | GI50 (UACC-62 melanoma): > 25 µM | TGI (UACC-62 melanoma): > 25 µM | GI50 (LOX IMVI melanoma): > 25 µM | TGI (LOX IMVI melanoma): > 25 µM | GI50 (K-562 leukemia): > 25 µM | TGI (K-562 leukemia): > 25 µM | GI50 (MALME-3M melanoma): > 25 µM | TGI (MALME-3M melanoma): > 25 µM | GI50 (HCT-116 colon): > 25 µM | TGI (HCT-116 colon): > 25 µM | GI50 (HS 578T breast): 11.6 µM | TGI (HS 578T breast): > 25 µM | GI50 (SF-539 CNS): > 25 µM | TGI (SF-539 CNS): > 25 µM | GI50 (SNB-19 CNS): > 25 µM | TGI (SNB-19 CNS): > 25 µM | GI50 (T-47D breast): > 25 µM | TGI (T-47D breast): > 25 µM | GI50 (SK-MEL-2 melanoma): > 25 µM | TGI (SK-MEL-2 melanoma): > 25 µM | GI50 (A549 NSCLC): > 25 µM | TGI (A549 NSCLC): > 25 µM | GI50 (MCF7 breast): > 25 µM | TGI (MCF7 breast): > 25 µM | GI50 (HCC-2998 colon): > 25 µM | TGI (HCC-2998 colon): > 25 µM | GI50 (MDA-MB-435): > 25 µM | TGI (MDA-MB-435): > 25 µM | GI50 (MDA-MB-231 breast): 21 µM | TGI (MDA-MB-231 breast): > 25 µM | GI50 (HCT-15 colon): > 25 µM | TGI (HCT-15 colon): > 25 µM | GI50 (HT29 colon): > 25 µM | TGI (HT29 colon): > 25 µM | GI50 (SW-620 colon): > 25 µM | TGI (SW-620 colon): > 25 µM | GI50 (NCI-H23 lung): > 25 µM | TGI (NCI-H23 lung): > 25 µM | GI50 (UO-31 renal): 5.17 µM | TGI (UO-31 renal): > 13.4 µM | GI50 (RPMI-8226 leukemia): > 25 µM | TGI (RPMI-8226 leukemia): > 25 µM | GI50 (SF-268 CNS): > 23.7 µM | TGI (SF-268 CNS): > 25 µM | GI50 (CAKI-1 renal): > 25 µM | TGI (CAKI-1 renal): > 25 µM | GI50 (U251 CNS): > 25 µM | TGI (U251 CNS): > 25 µM | GI50 (CCRF-CEM leukemia): > 25 µM | TGI (CCRF-CEM leukemia): > 25 µM | GI50 (SK-OV-3 ovarian): > 25 µM | TGI (SK-OV-3 ovarian): > 25 µM | GI50 (BT-549 breast): > 25 µM | TGI (BT-549 breast): > 25 µM | GI50 (PC-3 prostate): > 25 µM | TGI (PC-3 prostate): > 25 µM | GI50 (A498 renal): 5.39 µM | TGI (A498 renal): > 25 µM | GI50 (SK-MEL-28 melanoma): > 25 µM | TGI (SK-MEL-28 melanoma): > 25 µM | GI50 (NCI-H522 lung): > 25 µM | TGI (NCI-H522 lung): > 25 µM | GI50 (OVCAR-8 ovarian): > 25 µM | TGI (OVCAR-8 ovarian): > 25 µM | GI50 (SK-MEL-5 melanoma): > 25 µM | TGI (SK-MEL-5 melanoma): > 25 µM | GI50 (M14 melanoma): > 25 µM | TGI (M14 melanoma): > 25 µM | GI50 (KM12 colon): > 25 µM | TGI (KM12 colon): > 25 µM | GI50 (TK-10 renal): 15.8 µM | TGI (TK-10 renal): > 25 µM | GI50 (OVCAR-5 ovarian): > 25 µM | TGI (OVCAR-5 ovarian): > 25 µM | GI50 (RXF 393 renal): 12.7 µM | TGI (RXF 393 renal): > 25 µM | GI50 (UACC-257 melanoma): > 25 µM | TGI (UACC-257 melanoma): > 25 µM | GI50 (DU-145 prostate): > 25 µM | TGI (DU-145 prostate): > 25 µM | GI50 (OVCAR-4 ovarian): > 25 µM | TGI (OVCAR-4 ovarian): > 25 µM | GI50 (HOP-92 NSCLC): 2890 nM | TGI (HOP-92 NSCLC): 21.6 µM | GI50 (SN12C renal): 21.4 µM | TGI (SN12C renal): > 25 µM | GI50 (ACHN renal): > 25 µM | TGI (ACHN renal): > 25 µM | GI50 (786-0 renal): > 25 µM | TGI (786-0 renal): > 25 µM | GI50 (COLO 205 colon): > 25 µM | TGI (COLO 205 colon): > 25 µM | GI50 (SF-295 CNS): > 25 µM | TGI (SF-295 CNS): > 25 µM | GI50 (NCI-H226 lung): > 25 µM | TGI (NCI-H226 lung): > 25 µM | GI50 (IGROV1 ovarian): > 25 µM | TGI (IGROV1 ovarian): > 25 µM | GI50 (MOLT-4 leukemia): > 25 µM | TGI (MOLT-4 leukemia): > 25 µM
